Test results from US10925858B2, “S-nitrosoglutathione (GSNO) and GSNO reductase inhibitors for use in therapy” (MUSC FOUNDATION FOR RESEARCH DEVELOPMENT, priority 2017, dated 2021).

What was measured:
[1] = test system: hBMVECs; test: Assay of trans-endothelial electrical resistance (TEER) in thrombin treated hBMVECs; type: cell-based, human; settings: thrombin 0.1 unit/ml; GSNO 100 μM or SIN-1 500 μM pretreated 2 hr
Method: Cell culture: Primary human brain microvascular endothelial cells (hBMVECs) were purchased from Angio-Proteomie (Cat #: cAP-0002, Atlanta, Ga.). The cells were cultured in cell culture flasks or plates precoated with Quick Coating Solution (Angio-Proteomie; Cat #: cAP-01) and maintained in Endothelial Growth Medium (Angio-Proteomie; Cat #: cAP-02) at 37° C. under 5% CO2/95% air. When the cells were almost confluent, the medium was replaced with endothelial basal medium (Angio-Proteomie; Cat #: cAP-03) containing 0.5% fetal bovine serum (FBS; Life Technologies, Grand Island, N.Y.) about 8-12 hours before the experiment. No institutional approval was required for this study. The study was not pre-registered. For evaluation of the endothelial barrier function, hBMVECs were plated on fibronectin-coated polycarbonate filters (Transwell system, Corning, Midland, N.C.) containing Endothelial Growth Medium (Angio-Proteomie Cat #: cAP-02). The medium was renewed every other day. Five days after seeding, the medium was replaced with Endothelial Basal Medium (Angio-Proteomie Cat #: cAP-03) containing 0.5% FBS and incubated for 2 days. Following drug treatments, transendothelial electrical resistance (TEER) was measured by EVOM2 (Word Precision Instruments) as described previously (Li et al., 2006).

[2] = test system: RhoA; test: RhoA activity assay in thrombin treated hBMVECs; type: cell-based, human; settings: thrombin 0.1 unit/ml 5 min; L-NIO or FeTPPS 10 μM pretreated 30 min; GSNO or SIN-1 various concentrations pretreated 2 hr
Method: (§1) Cell culture: Primary human brain microvascular endothelial cells (hBMVECs) were purchased from Angio-Proteomie (Cat #: cAP-0002, Atlanta, Ga.). The cells were cultured in cell culture flasks or plates precoated with Quick Coating Solution (Angio-Proteomie; Cat #: cAP-01) and maintained in Endothelial Growth Medium (Angio-Proteomie; Cat #: cAP-02) at 37° C. under 5% CO2/95% air. When the cells were almost confluent, the medium was replaced with endothelial basal medium (Angio-Proteomie; Cat #: cAP-03) containing 0.5% fetal bovine serum (FBS; Life Technologies, Grand Island, N.Y.) about 8-12 hours before the experiment. No institutional approval was required for this study. The study was not pre-registered.
RhoA activity in hBMVECs was analyzed by RhoA Activation Assay Kit (Abeam Cat #: ab211164, Cambridge, Mass.). Briefly, following drug treatments, the cells were lysed with 1× Assay buffer provided in the kit. Lysates were centrifuged (14,000×g for 10 sec), and supernatants were incubated with agarose beads coupled to GST-Rhotekin-Rho binding domain (RBD) for 2 h at 4° C. Beads were then washed with 1× Assay buffer and GTP-bound RhoA was eluted with 2×SDS-PAGE sample buffer. Amounts of active (GTP-bound) RhoA were determined by Western blot analysis using antibody specific to RhoA (Abeam).

[3] = test system: protein-associated 3-nitrotyrosine; test: Assay for protein-associated nitrotyrosine in hBMVECs; type: cell-based, human
Method: as §1
Cellular levels of protein-associated 3-nitrotyrosine were analyzed by ELISA Kit (Abeam, Cat #: ab116691) and Western blot analysis using antibody specific to 3-nitrotyrosine (Abeam, Cat #: ab61392). For the ELISA, hBMVECs were lysed in extraction buffer provided with the kit followed by centrifugation at 16,000×g 4° C. The cell lysate supernatants were subjected to protein quantification with Bio-Rad DC protein assay kit (Bio-Rad, Hercules, Calif.) and the equal amounts of proteins (500 μg) were loaded onto 96 well microplate coated with 3-nitrotyrosine capture antibody and followed by incubation with biotin-conjugated 3-nitrotyrosine detector antibody. Following washing, the plates were incubated with HRP-conjugated streptoavidin and the levels of 3-nitrotyrosine were measured by incubation with 3,3′,5,5′-tetramethylbenzidine solution and colorimetric analysis at […] using SpectraMax 190 Microplate Reader (Molecular Devices, Sunnyvale, Calif.). For analysis of degree of RhoA tyrosine nitration, the cell lysates were immunoprecipiated with antibody specific to 3-nitrotyrosine (Abeam) and the levels of tyrosine nitrated RhoA were analyzed by Western analysis for RhoA.

[4] = test system: myosin light chain (MLC); test: Western analysis of MLC phosphorylation (Ser19) in thrombin treated hBMVECs; type: cell-based, human; settings: thrombin 0.1 unit/ml 5 min; L-NIO or FeTPPS 10 μM; GSNO or SIN-1 various concentrations
Method: as §1
Western immunoblot analysis was performed by standard method using 50 μg of cell lysates. Following the SDS-PAGE electrophoresis, proteins were transferred from the gel onto the Polyvinylidene fluoride membrane (GE Healthcare Life Sciences, Marlborough, Mass.). Membranes were blocked with non-fat dry milk (Santa Cruz Biotechnology) or I-Block™ (ThermoFisher Scientific, Waltham, Mass.) for detection of phospho-proteins and incubated with primary antibodies, such as MBP (Santa Cruz Biotech Cat #: sc13914; RRID: AB_648798), phospho-(Ser^19) MLC (Abeam, Cat #: ab2480; RRID: AB_303094), MLC (Abeam, Cat #: ab79935; RRID:AB_1952220), P-actin (Santa Cruz Biotechnology, Cat #: sc-47778; RRID:AB_2714189), phospho-eNOS (Ser^1177) (Cell Signaling, Cat #: 9571; RRID: AB_329837, Danvers, Mass.), eNOS (Cell Signaling, Cat #: 32027), RhoA (Santa Cruz Biotechnology; Cat #: sc418; RRID: AB_628218) or 3-nitrotyrosine (Abeam, Cat #: ab61392; RRID: AB_942087). Following washing, the membranes were incubated with horseradish peroxidase conjugated secondary antibody (Jackson Immunoresearch Lab, West Grove, Pa.), washed and then incubated with ECL reagent (Amersham Life Science, Pittsbrugh, Pa.), and exposed to Amersham Hyperfilm ECL film

[5] = test system: intracellular Ca^2+ ([Ca^2+]i) influx; test: Assay for intracellular Ca2+ influx in thrombin treated hBMVECs; type: cell-based, human; settings: thrombin 0.1 unit/ml; L-NIO or FeTPPS 10 μM; GSNO or SIN-1 various concentrations
Method: as §1, with “pre-registered. Intracellular Ca^2+ concentration ([Ca^2+]i) was measured with Fluo-4 Direct Calcium Assay Kit (Thermo Fisher Scientific, Cat #: F10471, Grand Island, N.Y.). Briefly, culture medium in the 96-well plate was replaced with a Ca^2+ sensitive dye Fluo-4 in an endothelial basal medium. After 30 min incubation, the dye was removed and cells were incubated with the original medium with or without the drugs at 37° C. for 15 min. Following thrombin treatment, time course changes of fluorescent intensity were quantified using a CLARIOstar multi-well fluorometer (BMG Labtech, Cary, N.C.).” for “pre-registered.”

[6] = test system: hBMVECs; test: Assay for F-actin stress fiber development in thrombin treated hBMVECs; type: cell-based, human; settings: thrombin 0.1 unit/ml 30 min; GSNO 100 μM or SIN-1 100 μM pretreated 2 hr
Method: as §1
Assay for F-actin stress fiber development and endothelial cell contraction: hBMVECs were cultured on fibronectin-coated chamber slides (BD Bioscience). Following drug treatments, the cells were fixed with 4% (wt/vol) paraformaldehyde, permeabilized by the addition of 0.25% Triton X-100, and blocked by 2% bovine serum albumin (BSA) in phosphate buffered saline (PBS). […] The density of fluorescence was analyzed by ImageJ (NIH, Bethesda, Md.).

[7] = test system: lymphocytes in blood; test: Total lymphocyte count in blood of normal mice (lymphopenic effect); type: in vivo, C57BL/6 mice; settings: normal mice without EAE, 1 mg/kg/day for 19 days
Method: The bloods collected in EDTA blood collection tubes (BD Biosciences) were analyzed by an automated hematology analyzer for counting total lymphocytes. For counting of each subset of lymphocytes, 50 μl of blood was mixed with staining buffer (20 μl) containing fluorescence labelled antibodies and red-blood-cells were lysed with FACS lysing solution (BD Biosciences) prior to fluorescence flow-cytometric analysis. For staining of CD3+, CD4+, and CD8+ cells, allophycocvanin (APC)-labeled anti-mouse CD3 (eBioscience clone 17A2), Fluorescein isothiocyanate (FITC)-labeled anti-mouse CD4 (eBioscience clone RM4-5), APC-labeled anti-mouse CD8 (eBioscience clone 53-6.7) and appropriate isotype matched controls.

[8] = test system: EAE mice; test: Active EAE (MOG35-55), clinical score; type: in vivo, C57BL/6 mice
Method: Female C57BL/6 mice of 8-12 weeks of age, purchased from Jackson Laboratory, were provided with food and water ad libitum and were kept in pathogen free animal care facility of Medical University of South Carolina (MUSC) throughout the study. […] EAE was induced as described previously (Nath et al., 2009). Briefly, mice were immunized subcutaneously in the flank regions with MOG35-55 peptide (MOG; 200 μg; Peptide International) emulsified (1:1) in 100 ul complete Freund's adjuvant (CFA) on day 0 and day 7. Additionally, 300 ng of Pertussis toxin (Sigma-Aldrich, St. Louis, Mo.) was given on day 0 and day 2 by i.p. injection. Pertussis toxin used as per the standardized protocol reported by us and other investigators for the induction of EAE (Nath et al., 2009). Similarly, healthy control group received subcutaneous injection of PBS and CFA emulsion on day 0 and day 7. Clinical signs of EAE were scored by examiners blinded to experimental treatments using the following scale: 0=no clinical signs of disease; 1=piloerection and sluggish; 2=limp tail (ataxia); 2.5=ataxia with partial hind limb paralysis; 3=full paralysis of hind limb; 3.5=full paralysis of hind limb with paralysis of one fore limb; 4=full paralysis of two limbs; 4.5=moribund stage; 5=death. […] The drug treatments were continued till the termination of the study (day 41 post immunization). EAE animals without drug treatment received PBS. Likewise, healthy controls received vehicle.
Clinical disease scores as average maximal scores over the treatment period (mean±SD) and analyzed using Kruskal-Wallis test. […] Significances (p value) between groups were determined using the Newman-Keul test. A value of p<0.05* and above was considered significant.

For `Cl.N=c1c[n+](N2CCOCC2)[n-]o1` [SIN-1, 3-morpholinosydnonimine chloride], the “thrombin-induced loss of TEER” value [1] was “enhanced”, the “thrombin-induced RhoA activation” value [2] was “enhanced” and the RhoA tyrosine nitration ([3]; various concentrations, incubated 2 hr) was “increased”. The “cellular levels of protein-associated 3-nitrotyrosine” value ([3]; various concentrations, incubated 2 hr, no thrombin) was “increased”, the “thrombin-induced MLC phosphorylation” value [4] was “enhanced” and the “thrombin-induced intracellular Ca2+ influx” value [5] was “enhanced”. For the same molecule, the “thrombin-induced development of F-actin stress fiber formation” value [6] was “enhanced”.
`CCCCCCCCc1ccc(CCC(N)(CO)CO)cc1` [FTY720] was tested, and the “numbers of total lymphocytes, CD3+ T cells, CD4+ T cells and CD8+ cells in blood” value [7] was “significantly reduced”, the “clinical score at the peak of disease” value ([8]; day 21 post immunization, 1 mg/kg/day from disease onset (GSNO oral, N6022 i.p., FTY720 oral), untreated EAE 3.5±0.5) was 3.0±0.87 and the “clinical score at the remission of disease” value ([8]; day 41 post immunization, 1 mg/kg/day from disease onset (GSNO oral, N6022 i.p., FTY720 oral), untreated EAE 2.5±0.5) was 1.67±0.58. For the same molecule, the “efficacy on EAE disease compared at the same dose” value ([8]; single dose comparison of N6022, GSNO and FTY720, 1 mg/kg/day) was “less effective”.
In the case of `CC(=N)NCCC[C@H](N)C(=O)O.Cl.Cl` [L-NIO, N^5-(1-Iminoethyl)-L-omithine dihydrochloride], the “thrombin-induced RhoA activation” value [2] is reported as “decreased”, the “thrombin-induced 3-nitrotyrosine levels” value ([3]; thrombin 0.1 unit/ml 20 min, L-NIO or FeTPPS 10 μM pretreated 30 min, ELISA) is reported as “attenuated” and the “thrombin-induced MLC phosphorylation” value [4] is reported as “inhibited”. The “thrombin-induced intracellular Ca2+ influx” value [5] was “had not effect”.
